Laboratory results from US20080306047A1, “Use of Aza-Phenylalanine Compounds For Treating Cardiac Arrhythmia” (priority 2005, published 2008).

How the values were obtained:
isolated rat hearts [1] = assay: Reperfusion-induced arrhythmia in isolated rat hearts (Langendorff) subjected to 40-min global ischemia; design: species or system Wistar rats; conditions: 40-min ischemia, 50 min reperfusion, drug 1 μM in K-H solution, mean ± SEM
Experimental: Wistar rats (230-330 g) are anaesthetized by intraperitoneal injection of urethane (0.7 ml 20% w/v solution/100 g body weight), followed by intraperitoneal injection of heparin (2500 IU/rat). Having opened the thorax a cannula filled with cold Krebs-Henseleit (K-H) solution is inserted into the ascending aorta. After that the heart is excised, it is connected to Langendorff's apparatus and perfused with K-H solution (K-H solution, in mM: 118.6 NaCl; 4.7 KCl; 11.1 glucose; 25 NaHCO3; 1.66 MgSO4; 1.2 NaH2PO4, 2.52 […]; pH=7.4) under constant pressure (60 cm H2O). Prior to use, the K-H perfusion solution is passed through a cellulose acetate filter (pore size 5 μm) to remove any particulate impurities. The perfusion solution is kept at 38.5° C. and gassed with 95% O2 and 5% CO2. Two silver (AgCl) electrodes are set on the surface of the heart in the direction of electrical axis of the heart for recording electrocardiogram. Electrodes are placed on the heart in such a position that a sufficient amplitude of P wave and QRS complex is obtained. The following experimental groups are studied: 1) isolated hearts are perfused with oxygenated K-H solution for 30 min followed by 40 min of global ischemia and followed by 50 min of reperfusion with oxygenated K-H solution; 2) isolated hearts are perfused with oxygenated K-H solution for 20 min, followed by 10 min perfusion with experimental drug dissolved in K-H and then the hearts are exposed to 40 min of global ischemia followed by 50 min reperfusion with experimental drug dissolved in K-H. The used experimental drugs are compounds of formulae IV, V and VI as defined above. As a positive control direct thrombin inhibitor argatroban and low molecular weight heparin nadroparin are used. The hearts are monitored for the duration of proarrhythmic events according to the Lambeth convention (Walker et al., Cardiovascular Res 1988; 22: 447-455). Lactate dehydrogenase (LDH) release rate is determined spectophotometrically (Wroblevski & LaDue, Proc Exp Biol Med 1955; 90: 210-213) in the coronary effluent and is expressed in μkat per minute and per weight of the heart (Grasic Kuhar et al. Eur J Pharmacol 2004; 488: 137-46).

isolated rat hearts [2] = assay: Reperfusion-induced arrhythmia in isolated rat hearts (Langendorff), 25-min global no-flow ischemia, 30 min reperfusion; design: species or system Wistar rats; conditions: 1 μM and 10 μM (+DMSO 500 μL/L), n=12
Experimental: Hearts from male Wistar rats (300-370 g) anesthetized with diethyl-ether inhalation were perfused with Krebs-Henseleit buffer at 37° C. gassed with carbogen in Langendorff mode as described (Onody A et al., Cardiovasc Res. 2003, 58: 663-670). After an initial 15 min aerobic, normothermic perfusion period, hearts are subjected to 25-min of global, no-flow, normothermic ischemia, followed by 30 min normoxic, normothermic reperfusion. Measured parameters were heart rate and incidence of reperfusion-induced ventricular fibrillation (VF) and ventricular tachycardia (VT). Epicardial electrocardiogram was recorded throughout the experimental protocol to determine heart rate, VF and VT according to the Lambeth conventions (Walker et al., Cardiovasc Res. 1988; 22: 447-455) as described (Csonka et al., 2003; J Cardiovasc Pharmacol 41: 916-922; Ferdinandy et al., Cardiovasc Res. 1995; 58: 663-670.). Recording and evaluation of the ECG was performed using the SPEL Advanced Isosys system (Experimetria Ltd, Budapest, Hungary). Experimental groups were designed as follows: control, solvent (DMSO 500 μL/L), compound of formula IV at 1 μM (+DMSO 500 μL/L), compound of formula IV at 10 μM (+DMSO 500 μL/L), positive control: nifedipine at 0.5 μM (+DMSO 500 μL/L). Animals were randomly assigned to the different groups, however, perfusions were done in 4 parallel experiments within a group (n=12 in each group). The perfusion medium contained the drugs throughout the entire perfusion protocol in the treated groups. HR was compared to the solvent-treated group using ANOVA followed by Dunn's test. The incidence of VF and VT were compared with Chi^2 test in all groups, than each group was compared to the solvent-treated group using the Fischer's exact test.
Compound of formula IV was tested at 10 μM (Compound of formula IV, 10 μM) and 1 μM (Compound of formula IV, 1 μM), nifedipine was tested at 0.5 μM. Chi^2 test followed by the Fischer's exact test. * p<0.05; ** p<0.01; ## p<0.01 (all groups compared to DMSO group)

| Structure (SMILES) | Duration VF (ventricular fibrillation) (isolated rat hearts [1]) [s] | Duration VT (ventricular tachycardia) (isolated rat hearts [1]) [s] | Duration of all proarrhythmic events (VT, VF, extrasystolia and asystolia) (isolated rat hearts [1]) [s] | incidence of reperfusion-induced ventricular fibrillation (VF) (isolated rat hearts [2]; compared to DMSO group) | incidence of reperfusion-induced ventricular tachycardia (VT) (isolated rat hearts [2]; compared to DMSO group) | heart rate (HR) (isolated rat hearts [2]; compared to solvent-treated group) |
| --- | --- | --- | --- | --- | --- | --- |
| CC1CNc2c(cccc2S(=O)(=O)N[C@@H](CCCNC(=N)N)C(=O)N2CC[C@@H](C)C[C@@H]2C(=O)O)C1 (stereo partly drawn) [Argatroban, argatroban, reference compound] | 583.6 ± 228.6 | 828.7 ± 233.7 | 1731.0 ± 445.0 |  |  |  |
| N=C(N)c1cccc(CN(NS(=O)(=O)c2ccc3ccccc3c2)C(=O)N2CCCCCC2)c1 [Compound IV] | 78.6 ± 42.6 | 87.2 ± 53.3 | 353.3 ± 148.1 | concentration-dependently decreased | not significantly changed | not significantly changed |
| N=C(N)c1cccc(CN(NS(=O)(=O)Cc2ccccc2F)C(=O)N2CCCCCC2)c1 [Compound VI] | 596.0 ± 469.4 | 99.5 ± 77.95 | 810.2 ± 461.4 |  |  |  |
| N/C(=N\O)c1cccc(CN(NS(=O)(=O)c2ccc3ccccc3c2)C(=O)N2CCCCCC2)c1 [Compound V] | 149.3 ± 86.4 | 60.0 ± 30.8 | 278.3 ± 104.2 |  |  |  |
